Laboratory results from ChEMBL document CHEMBL5614422, “Design, synthesis and biological evaluation of N-salicyloyl tryptamine derivatives as multifunctional neuroprotectants for the treatment of ischemic stroke” (Eur J Med Chem, 2024).
Activity calls are given as the source filed them. No cut-off for these calls is given here.

Key:
[1] = system: HT-22; test: Cytoprotective activity against OGD/R induced mouse HT-22 cells assessed as increase in cell viability at 10 uM measured after 24 hrs by MTT assay; format: functional, cell-based
[2] = system: HT-22; test: Cytoprotective activity against OGD/R induced mouse HT-22 cells assessed as inhibition of intracellular LDH release at 10 uM; format: functional, cell-based
[3] = Antioxidant activity assessed as trolox equivalent of ORAC radical scavenging activity at 0.125 to 2 uM by AAPH based automatic microplate reader analysis; format: functional; conditions: dose 0.125-2 µM
[4] = system: BV-2; test: Anti-inflammatory activity against OGD/R and erastin induced ferroptosis in mouse BV-2 cells assessed as inhibition of IL-18 production preincubated for 6 hrs followed by OGD addition and measured after 1 hr by ELISA method; format: functional, cell-based; conditions: dose 10-40 µM, time 7.0 hrs
[5] = system: HT-22; test: Antioxidant activity against OGD/R induced oxidative stress in mouse HT-22 cells assessed as decrease in MDA content by absorbance based automatic microplate reader analysis; format: functional, cell-based
[6] = system: HT-22; test: Antioxidant activity against OGD/R induced damage in mouse HT-22 cells assessed as decrease in proportion of mitochondrial depolarized cells by JC-1 fluorescence based flow cytometry analysis; format: functional, cell-based; conditions: dose 1-10 µM
[7] = system: HT-22; test: Induction of morphological changes in OGD/R induced mouse HT-22 cells assessed as attenuation of cell rounding by microscopic based analysis; format: functional
[8] = system: HT-22; test: Induction of morphological changes in OGD/R induced mouse HT-22 cells assessed as attenuation of synaptic shortening by microscopic based analysis; format: functional, cell-based
[9] = system: HT-22; test: Upregulation of HO-1 protein level in OGD/R induced mouse HT-22 cells at 1 to 10 uM by Western blot analysis; format: functional, cell-based; conditions: dose 1-10 µM
[10] = system: HT-22; test: Upregulation of NQO1 protein level in OGD/R induced mouse HT-22 cells at 1 to 10 uM by Western blot analysis; format: functional, cell-based; conditions: dose 1-10 µM
[11] = system: HT-22; test: Cytoprotective activity against OGD/R induced mouse HT-22 cells assessed as increase in cell viability at 10 uM measured after 24 hrs in presence of ML385 by MTT assay; format: functional, cell-based
[12] = system: HT-22; test: Antioxidant activity against OGD/R induced oxidative stress in mouse HT-22 cells assessed as reduction in ROS release level at 10 uM in presence of ML385by DCFH-DA staining based flow cytometry analysis; format: functional, cell-based
[13] = system: HT-22; test: Anti-ferroptotic activity against OGD/R induced mouse HT-22 cells decrease as in Fe2+ level at 10 uM by cell ferrous calorimetry analysis; format: functional, cell-based
[14] = system: HT-22; test: Anti-ferroptotic activity against OGD/R induced mouse HT-22 cells decrease as in Fe2+ level at 10 uM in presence of ML385 by cell ferrous calorimetry analysis; format: functional, cell-based
[15] = system: HT-22; test: Anti-ferroptotic activity against OGD/R induced mouse HT-22 cells increase in GSH level at 10 uM in presence of ML385; format: functional, cell-based
[16] = system: HT-22; test: Upregulation of HO-1 protein level in OGD/R induced mouse HT-22 cells at 10 uM in presence of ML385 by Western blot analysis; format: functional, cell-based
[17] = system: HT-22; test: Upregulation of Nrf2 protein level in OGD/R induced mouse HT-22 cells at 10 uM in presence of ML385 by Western blot analysis; format: functional, cell-based
[18] = system: HT-22; test: Upregulation of GPX4 protein level in OGD/R induced mouse HT-22 cells at 10 uM in presence of ML385 by Western blot analysis; format: functional, cell-based
[19] = system: Mus musculus; test: Neuroprotective activity against MCAO-R induced 12 hrs fasted male C57BL/6J mouse model assessed as reduction in infarct volume administered as ip once a day for 7 days by TTC staining based analysis; format: functional, organism-based; conditions: time 7.0 day
[20] = system: Mus musculus; test: Neuroprotective activity against MCAO-R induced 12 hrs fasted male C57BL/6J mouse model assessed as reduction in neurologic deficit score administered as ip once a day for 7 days by TTC staining based analysis; format: functional, organism-based; conditions: time 7.0 day
[21] = system: Mus musculus; test: Neuroprotective activity against MCAO-R induced 12 hrs fasted male C57BL/6J mouse model assessed as alleviation of neurological impairment at 10 to 50 mg/kg, ip administered once a day for 7 days by H and E staining based analysis; format: functional, organism-based; conditions: dose 10-50 mg/kg, time 7.0 day
[22] = system: Mus musculus; test: Neuroprotective activity against MCAO-R induced 12 hrs fasted male C57BL/6J mouse model assessed as decrease in LDH level in cerebral ischemic tissue at 10 to 50 mg/kg, ip administered once a day for 7 days; format: functional, organism-based; conditions: dose 10-50 mg/kg, time 7.0 day
[23] = system: Mus musculus; test: Neuroprotective activity against MCAO-R induced 12 hrs fasted male C57BL/6J mouse model assessed as increase in SOD activity in cerebral ischemic tissue at 10 to 50 mg/kg, ip administered once a day for 7 days; format: functional, organism-based; conditions: dose 10-50 mg/kg, time 7.0 day
[24] = system: Mus musculus; test: Neuroprotective activity against MCAO-R induced 12 hrs fasted male C57BL/6J mouse model assessed as decrease in S100 expression in cortex by measuring decrease in fluorescence intensity administered once a day as ip dose for 7 days by immunofluorescence method; format: functional, organism-based; conditions: dose 10-50 mg/kg, time 7.0 day
[25] = system: Mus musculus; test: Neuroprotective activity against MCAO-R induced 12 hrs fasted male C57BL/6J mouse model assessed as decrease in S100 expression in CA1 by measuring decrease in fluorescence intensity administered once a day as ip dose for 7 days by immunofluorescence method; format: functional, organism-based; conditions: dose 10-50 mg/kg, time 7.0 day
[26] = target: Phospholipid hydroperoxide glutathione peroxidase GPX4 (Mus musculus) (UniProt O70325); test: In vivo activation of Nrf2 pathway in MCAO-R induced 12 hrs fasted male C57BL/6J mouse model assessed as increase in GPX4 expression level at 10 to 50 mg/kg, ip by Western blot analysis; format: functional, organism-based; conditions: dose 10-50 mg/kg
[27] = system: Mus musculus; test: Neuroprotective activity against MCAO-R induced 12 hrs fasted male C57BL/6J mouse model assessed as reduction in neurologic deficit score at 10 to 50 mg/kg, ip for 7 days by […]; format: functional, organism-based; conditions: dose 10-50 mg/kg, time 7.0 day

Chain of Phospholipid hydroperoxide glutathione peroxidase GPX4 (Mus musculus) (O70325 whole entry): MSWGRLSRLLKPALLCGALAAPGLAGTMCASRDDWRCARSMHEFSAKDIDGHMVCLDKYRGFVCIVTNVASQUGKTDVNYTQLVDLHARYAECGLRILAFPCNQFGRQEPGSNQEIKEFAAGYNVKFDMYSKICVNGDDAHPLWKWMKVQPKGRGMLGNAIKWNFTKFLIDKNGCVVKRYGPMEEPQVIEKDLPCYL

**Q.** What does the source list for `Cc1ccc(C(=O)NCCc2c[nH]c3ccc(N(C)C)cc23)c(O)c1`?
**A.** Activity [1]: Active; Activity [2]: Active; Activity [3]: 5.2; Activity [4]: Dose-Dependent Effect; Activity [5]: Active; Activity [6]: Dose-Dependent Effect; Activity [7]: Active; Activity [8]: Active; Activity [9]: Active; Activity [10]: Active; Activity [11]: inactive; Activity [12]: inactive; Activity [13]: Active; Activity [14]: inactive; Activity [15]: inactive; Activity [16]: inactive; Activity [17]: inactive; Activity [18]: inactive; Activity [19]: Dose-Dependent Effect; Activity [20]: Dose-Dependent Effect; Activity [21]: Active; Activity [22]: Active; Activity [23]: Active; Activity [24]: Dose-Dependent Effect; Activity [25]: Dose-Dependent Effect; Activity [26]: Active; Activity [27]: Active
